In ChEMBL document CHEMBL5291721, “A preclinical secondary pharmacology resource illuminates target-adverse drug reaction associations of marketed drugs” (Nat Commun, 2023) one finds AC50 data, which are given here for 16 compounds.

Assay [1] has as its target T1, Alpha-2C adrenergic receptor (Homo sapiens, UniProt P18825).
T1 sequence (P18825 whole entry): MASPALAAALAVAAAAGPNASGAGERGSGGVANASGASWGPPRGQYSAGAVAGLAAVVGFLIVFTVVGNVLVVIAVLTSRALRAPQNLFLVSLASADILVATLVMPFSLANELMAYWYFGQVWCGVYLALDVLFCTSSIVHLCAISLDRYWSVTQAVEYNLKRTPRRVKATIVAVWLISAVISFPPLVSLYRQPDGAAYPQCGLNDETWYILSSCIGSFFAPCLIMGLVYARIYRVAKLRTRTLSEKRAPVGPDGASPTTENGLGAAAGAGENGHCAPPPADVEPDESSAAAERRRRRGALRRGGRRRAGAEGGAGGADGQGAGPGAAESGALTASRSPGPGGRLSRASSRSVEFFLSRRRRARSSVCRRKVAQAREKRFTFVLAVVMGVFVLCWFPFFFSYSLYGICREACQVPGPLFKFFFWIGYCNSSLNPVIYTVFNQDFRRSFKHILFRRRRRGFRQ
The format is functional.

For assay [2], the target named is Gamma-aminobutyric acid receptor subunit alpha-1 (Rattus norvegicus, UniProt P62813). It is filed as functional.
For assay [3], the target named is Growth hormone secretagogue receptor type 1 (Homo sapiens, UniProt Q92847).
Assay [4] deals with 5-hydroxytryptamine receptor 2B (Homo sapiens, UniProt P41595). The format is functional, cell-based.
Assay [5] deals with T2, 5-hydroxytryptamine receptor 2C (Homo sapiens, UniProt P28335).
T2 sequence (P28335 whole entry): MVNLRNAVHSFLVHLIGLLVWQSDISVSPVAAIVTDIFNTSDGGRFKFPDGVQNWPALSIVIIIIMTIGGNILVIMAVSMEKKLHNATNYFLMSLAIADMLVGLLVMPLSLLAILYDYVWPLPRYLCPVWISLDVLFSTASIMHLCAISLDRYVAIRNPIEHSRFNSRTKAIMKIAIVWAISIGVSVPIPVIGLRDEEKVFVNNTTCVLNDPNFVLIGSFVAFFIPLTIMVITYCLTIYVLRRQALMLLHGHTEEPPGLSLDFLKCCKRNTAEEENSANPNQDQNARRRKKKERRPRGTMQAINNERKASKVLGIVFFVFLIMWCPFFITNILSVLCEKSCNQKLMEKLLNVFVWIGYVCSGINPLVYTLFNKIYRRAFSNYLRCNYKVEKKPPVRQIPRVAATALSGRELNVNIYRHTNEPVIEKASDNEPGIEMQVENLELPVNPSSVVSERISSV

The target of assay [6] is T3, 5-hydroxytryptamine receptor 3A (Homo sapiens, UniProt P46098).
T3 sequence (P46098 whole entry): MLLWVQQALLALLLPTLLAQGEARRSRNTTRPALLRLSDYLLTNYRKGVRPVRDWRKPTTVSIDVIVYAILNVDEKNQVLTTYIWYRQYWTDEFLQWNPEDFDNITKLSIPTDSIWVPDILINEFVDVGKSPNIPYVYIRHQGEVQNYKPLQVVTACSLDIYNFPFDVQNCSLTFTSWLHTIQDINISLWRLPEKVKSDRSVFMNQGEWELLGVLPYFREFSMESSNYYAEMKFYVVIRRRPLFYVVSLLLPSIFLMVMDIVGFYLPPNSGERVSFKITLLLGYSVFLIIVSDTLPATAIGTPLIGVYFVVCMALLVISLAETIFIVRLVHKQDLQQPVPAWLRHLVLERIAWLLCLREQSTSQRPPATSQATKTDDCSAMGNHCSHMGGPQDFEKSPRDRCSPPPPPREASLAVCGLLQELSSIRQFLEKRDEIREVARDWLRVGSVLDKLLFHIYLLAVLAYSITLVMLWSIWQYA
It is filed as functional.

Assay [7] concerns the target Delta-type opioid receptor (Homo sapiens, UniProt P41143).
Assay [8] addresses 3',5'-cyclic-AMP phosphodiesterase 4D (Homo sapiens, UniProt Q08499). It is filed as functional.
Assay [9] addresses T4, Prostaglandin G/H synthase 1 (Rattus norvegicus, UniProt Q63921).
T4 sequence (Q63921 whole entry): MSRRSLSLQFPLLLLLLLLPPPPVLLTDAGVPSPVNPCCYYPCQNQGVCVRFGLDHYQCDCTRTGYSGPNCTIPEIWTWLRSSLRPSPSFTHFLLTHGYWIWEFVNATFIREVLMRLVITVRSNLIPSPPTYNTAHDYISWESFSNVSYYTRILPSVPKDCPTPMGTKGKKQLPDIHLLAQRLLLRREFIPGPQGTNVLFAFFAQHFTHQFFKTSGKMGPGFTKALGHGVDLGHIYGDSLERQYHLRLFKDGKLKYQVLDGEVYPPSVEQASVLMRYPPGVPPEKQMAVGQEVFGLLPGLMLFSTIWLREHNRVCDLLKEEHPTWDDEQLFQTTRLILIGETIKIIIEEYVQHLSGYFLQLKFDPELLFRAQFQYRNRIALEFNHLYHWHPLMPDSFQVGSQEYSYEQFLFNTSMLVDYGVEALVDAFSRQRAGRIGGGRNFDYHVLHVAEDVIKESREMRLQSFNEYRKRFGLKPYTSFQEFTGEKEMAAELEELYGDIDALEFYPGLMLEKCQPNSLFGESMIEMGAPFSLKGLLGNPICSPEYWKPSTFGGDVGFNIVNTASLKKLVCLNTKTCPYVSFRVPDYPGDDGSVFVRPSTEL
The format is functional.

Assay [10] addresses T5, Amine oxidase [flavin-containing] A (Homo sapiens, UniProt P21397).
T5 sequence (P21397 whole entry): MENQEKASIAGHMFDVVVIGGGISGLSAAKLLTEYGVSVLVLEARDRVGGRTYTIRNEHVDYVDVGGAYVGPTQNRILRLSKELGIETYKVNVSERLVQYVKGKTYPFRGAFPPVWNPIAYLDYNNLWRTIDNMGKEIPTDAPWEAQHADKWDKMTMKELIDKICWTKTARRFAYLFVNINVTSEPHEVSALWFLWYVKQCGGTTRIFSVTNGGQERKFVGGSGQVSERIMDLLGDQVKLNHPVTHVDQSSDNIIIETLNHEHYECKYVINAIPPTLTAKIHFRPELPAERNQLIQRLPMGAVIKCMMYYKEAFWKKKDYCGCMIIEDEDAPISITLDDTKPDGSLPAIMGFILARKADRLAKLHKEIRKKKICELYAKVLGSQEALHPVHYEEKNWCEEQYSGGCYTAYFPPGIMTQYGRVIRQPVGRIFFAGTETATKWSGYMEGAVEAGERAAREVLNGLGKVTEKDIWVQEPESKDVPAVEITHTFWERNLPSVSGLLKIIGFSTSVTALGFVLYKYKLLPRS
It is filed as functional.

SMILES strings stand for the structures. Some results are limits rather than exact numbers.
Also: assay procedure not described here.

Chain of 3',5'-cyclic-AMP phosphodiesterase 4D (Q08499 whole entry): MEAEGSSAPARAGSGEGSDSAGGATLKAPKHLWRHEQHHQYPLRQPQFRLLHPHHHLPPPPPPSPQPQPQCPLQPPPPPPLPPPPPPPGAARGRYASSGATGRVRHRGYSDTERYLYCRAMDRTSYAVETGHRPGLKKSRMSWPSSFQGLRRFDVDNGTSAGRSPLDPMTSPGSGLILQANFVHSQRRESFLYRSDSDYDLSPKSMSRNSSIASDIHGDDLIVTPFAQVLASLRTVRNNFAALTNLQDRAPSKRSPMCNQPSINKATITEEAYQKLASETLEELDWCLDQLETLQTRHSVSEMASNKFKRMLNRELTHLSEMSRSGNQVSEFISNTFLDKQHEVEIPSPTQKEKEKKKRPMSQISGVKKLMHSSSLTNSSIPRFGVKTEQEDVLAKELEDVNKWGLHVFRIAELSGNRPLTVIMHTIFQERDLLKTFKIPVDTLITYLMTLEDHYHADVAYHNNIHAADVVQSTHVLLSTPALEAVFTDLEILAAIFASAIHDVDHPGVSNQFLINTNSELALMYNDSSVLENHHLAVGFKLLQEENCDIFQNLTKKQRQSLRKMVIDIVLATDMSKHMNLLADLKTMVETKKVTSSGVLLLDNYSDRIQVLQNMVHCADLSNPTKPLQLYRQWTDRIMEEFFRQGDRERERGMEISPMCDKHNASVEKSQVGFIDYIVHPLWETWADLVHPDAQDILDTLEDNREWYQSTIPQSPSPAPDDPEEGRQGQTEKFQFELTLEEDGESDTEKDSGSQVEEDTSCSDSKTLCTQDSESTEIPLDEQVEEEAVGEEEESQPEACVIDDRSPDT
Chain of 5-hydroxytryptamine receptor 2B (P41595 whole entry): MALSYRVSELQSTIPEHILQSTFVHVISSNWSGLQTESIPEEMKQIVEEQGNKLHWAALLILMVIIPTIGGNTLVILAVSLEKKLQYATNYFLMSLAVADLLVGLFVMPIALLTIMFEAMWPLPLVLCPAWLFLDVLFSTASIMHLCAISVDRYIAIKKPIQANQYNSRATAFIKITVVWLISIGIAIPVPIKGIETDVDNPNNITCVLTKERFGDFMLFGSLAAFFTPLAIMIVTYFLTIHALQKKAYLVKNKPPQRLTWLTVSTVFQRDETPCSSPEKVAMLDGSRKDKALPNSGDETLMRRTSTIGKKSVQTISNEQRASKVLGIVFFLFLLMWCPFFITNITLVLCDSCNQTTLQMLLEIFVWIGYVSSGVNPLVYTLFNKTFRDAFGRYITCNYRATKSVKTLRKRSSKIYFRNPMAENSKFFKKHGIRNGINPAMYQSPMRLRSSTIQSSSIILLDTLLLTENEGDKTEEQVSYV
Chain of Gamma-aminobutyric acid receptor subunit alpha-1 (P62813 whole entry): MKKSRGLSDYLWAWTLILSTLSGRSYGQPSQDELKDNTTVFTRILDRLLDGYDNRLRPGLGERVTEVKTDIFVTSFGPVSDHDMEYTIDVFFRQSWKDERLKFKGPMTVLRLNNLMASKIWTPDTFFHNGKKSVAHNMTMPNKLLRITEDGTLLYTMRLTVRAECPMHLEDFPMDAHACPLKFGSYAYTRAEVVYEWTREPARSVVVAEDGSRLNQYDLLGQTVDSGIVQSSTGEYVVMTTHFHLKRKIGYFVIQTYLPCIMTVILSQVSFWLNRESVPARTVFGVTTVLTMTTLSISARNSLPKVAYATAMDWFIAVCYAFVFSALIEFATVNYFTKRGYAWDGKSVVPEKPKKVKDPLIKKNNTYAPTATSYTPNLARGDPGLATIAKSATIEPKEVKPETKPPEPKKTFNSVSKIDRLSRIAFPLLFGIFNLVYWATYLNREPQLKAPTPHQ
Chain of Delta-type opioid receptor (P41143 whole entry): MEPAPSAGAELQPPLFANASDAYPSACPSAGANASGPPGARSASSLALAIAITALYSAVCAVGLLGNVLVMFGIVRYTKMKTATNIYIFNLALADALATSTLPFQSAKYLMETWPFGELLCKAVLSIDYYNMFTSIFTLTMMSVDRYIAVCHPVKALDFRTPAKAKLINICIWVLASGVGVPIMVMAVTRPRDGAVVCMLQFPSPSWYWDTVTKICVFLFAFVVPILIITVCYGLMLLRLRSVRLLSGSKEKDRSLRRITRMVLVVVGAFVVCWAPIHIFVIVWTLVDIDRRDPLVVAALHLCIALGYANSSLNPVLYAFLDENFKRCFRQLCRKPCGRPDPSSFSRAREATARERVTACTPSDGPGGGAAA
Chain of Growth hormone secretagogue receptor type 1 (Q92847 whole entry): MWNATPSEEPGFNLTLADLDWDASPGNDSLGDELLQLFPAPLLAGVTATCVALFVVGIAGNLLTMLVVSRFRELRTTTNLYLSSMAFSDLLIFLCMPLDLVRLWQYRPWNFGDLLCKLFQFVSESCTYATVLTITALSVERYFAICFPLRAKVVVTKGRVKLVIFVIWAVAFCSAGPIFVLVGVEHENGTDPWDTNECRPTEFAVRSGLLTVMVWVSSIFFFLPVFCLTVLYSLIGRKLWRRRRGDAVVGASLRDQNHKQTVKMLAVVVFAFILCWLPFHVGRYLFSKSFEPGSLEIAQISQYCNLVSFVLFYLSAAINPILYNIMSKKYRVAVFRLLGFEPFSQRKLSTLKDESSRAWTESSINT

In the case of `C=CC1=C(C(=O)O)N2C(=O)[C@@H](NC(=O)/C(=N\O)c3csc(N)n3)[C@H]2SC1`, the AC50 (as a rule, the concentration at which the activity in the assay is half-maximal) is over 10 µM in [1]; over 10 µM in [2]; over 30 µM in assay [3]; over 10 µM in assay [4]; over 30 µM in assay [5]; over 30 µM in [6]. Moreover, the AC50 in [7] is over 30 µM; in [8], over 30 µM; in [9] it was over 30 µM; in assay [10], over 10 µM.
Compound `CC#CC(=O)N1CCC[C@H]1c1nc(-c2ccc(C(=O)Nc3ccccn3)cc2)c2c(N)nccn12` [ACALABRUTINIB] registered an AC50 in assay [9] of over 30 µM.
For `CN(C)CCC=C1c2ccccc2CCc2ccccc21` [AMITRIPTYLINE], the half-maximal activity concentration (AC50) was 0.29 µM in [1]; over 10 µM in [2]; over 30 µM in assay [3]; 0.15 µM in assay [5]; 8.7 µM in [6]; over 30 µM in assay [7]. The AC50 was over 30 µM in assay [8], over 30 µM in assay [9] and over 10 µM in [10].
`CN1CC2c3ccccc3Oc3ccc(Cl)cc3C2C1` (centres undefined) [ASENAPINE]: the half-maximal activity concentration (AC50) in assay [1] was 0.3 µM; in [3], 24 µM; in assay [4] it was 0.0013 µM; in assay [5] it was 0.0006 µM; in assay [6], 18 µM; in assay [7], over 30 µM. The AC50 in assay [8], in [9] and in assay [10] was over 30 µM throughout.
For `CC(=O)Oc1ccccc1C(=O)O` [ASPIRIN], the half-maximal activity concentration (AC50) in assay [1] is over 10 µM; in assay [2], over 10 µM; in assay [3], over 30 µM; in assay [4] it was over 10 µM; in [5], over 30 µM; in assay [6], over 30 µM. For the same compound, the AC50 in [7], in assay [8] and in assay [10] was over 30 µM throughout.
`CC(C)NCC(O)COc1ccc(CC(N)=O)cc1` (centres undefined) [ATENOLOL]: the half-maximal activity concentration (AC50) in assay [1], in [3], in assay [5], in assay [6], in assay [7] and in assay [8] was over 30 µM in each case. The half-maximal activity concentration (AC50) in assay [9] and in assay [10] was over 30 µM each time.
With `O=C(Cc1cccs1)N[C@@H]1C(=O)N2C(C(=O)[O-])=C(C[n+]3ccccc3)CS[C@H]12` [CEPHALORIDINE], the half-maximal activity concentration (AC50) in assay [1], in assay [2], in assay [4], in assay [5], in assay [6] and in assay [7] was over 30 µM each time. The AC50 in assay [8] and in assay [10] was over 30 µM in each case.
On to `CN(C)CCCC1(c2ccc(F)cc2)OCc2cc(C#N)ccc21` (centres undefined) [CITALOPRAM], for which the AC50 is over 10 µM in assay [1]; over 10 µM in assay [2]; over 30 µM in [3]; 0.678 µM in assay [4]; over 30 µM in assay [6]; over 30 µM in assay [7]. The AC50 in assay [8] is over 30 µM; in assay [9], over 30 µM; in [10], over 10 µM.
In the case of `O=c1[nH]cc(F)c(=O)[nH]1` [FLUOROURACIL], the AC50 in assay [3] and in assay [9] was over 30 µM throughout.
Consider `CCOC(=O)Nc1ccc(NCc2ccc(F)cc2)nc1N` [FLUPIRTINE], for which the AC50 in assay [1] is over 30 µM; in assay [2] it was over 30 µM; in assay [3] it was over 30 µM; in assay [4], over 30 µM; in [5] it was over 10 µM; in [6], over 30 µM. The AC50 in assay [7], in assay [8] and in [10] was over 30 µM throughout.
Consider `CCN(CCO)CCCC(C)Nc1ccnc2cc(Cl)ccc12` (centres undefined) [HYDROXYCHLOROQUINE], for which the AC50 in [2] was over 10 µM; in assay [3] it was over 10 µM; in assay [4], over 10 µM; in assay [5] it was over 30 µM; in [6], over 30 µM; in assay [7], over 30 µM. Besides, the AC50 is over 30 µM in [8], over 10 µM in assay [9] and over 10 µM in assay [10].
`C[C@@H](O)[C@H]1C(=O)N2C(C(=O)O)=C(SCCN=CN)C[C@H]12` [IMIPENEM ANHYDROUS]: the AC50 in assay [1], in assay [3], in assay [4], in assay [5], in assay [6] and in assay [7] was over 300 µM throughout. The AC50 in assay [8], in assay [9] and in [10] was over 300 µM in each case.
Consider `CC(=O)NC[C@H]1CN(c2ccc(N3CCOCC3)c(F)c2)C(=O)O1` [LINEZOLID], for which the AC50 in [1], in [2], in [3], in [5], in [6] and in assay [7] was over 30 µM each time. The AC50 in assay [8], in [9] and in [10] was over 30 µM each time.
Turning to `CS(=O)(=O)Nc1ccc([N+](=O)[O-])cc1Oc1ccccc1` [NIMESULIDE], the AC50 is over 30 µM in [1]; over 30 µM in [2]; 30 µM in assay [3]; 26 µM in [5]; over 30 µM in [6]; over 30 µM in assay [7]. In addition, the AC50 in assay [8], in assay [9] and in assay [10] was over 30 µM in each case.
In the case of `C#CCN(C)Cc1ccccc1` [PARGYLINE], the AC50 in assay [1], in assay [2], in assay [4], in assay [5], in assay [6] and in [7] was over 30 µM each time. Also, the AC50 in assay [8] is over 30 µM.
As for `Cc1ccc(C(C)C)c(O)c1` [THYMOL], the half-maximal activity concentration (AC50) in [5] is 170 µM; in assay [9], 120 µM.
